Active and inactive are the calls of the source.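 The calls were made as follows: active = EC50 no more than a set limit of log units above the highest dose; inactive = the rest.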
Target: S. pyogenes SKKanGAS, kanamycin survival, BacTiterGlo, 6 h
Assay: SKKanGAS survival reduction under kanamycin, dose response, streptokinase promoter inhibitor project, SKKanGAS strain, luminescence, dose confirmation (AID 1902);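 also: lower survival reflects blocked streptokinase promoter driving kanamycin resistance gene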

SMILES | EC50
FC(F)(F)c1cccc(NC(=S)Nc2ccc(Cl)cc2Cl)c1 | 2830 nM
COc1ccc(NS(=O)(=O)c2ccc3nc(COc4cccc5ccccc45)[nH]c3c2)cc1 | 5970 nM
Oc1cccc2ccc(/C=C/c3ccccc3Cl)nc12 | 248 nM
O=C(Cc1cccs1)NNC(=S)NC(=O)c1ccccc1 | 3290 nM
Cc1nnc(NC(=O)c2ccc(S(=O)(=O)N3CC(C)CC(C)C3)cc2)o1 (stereo not given) | 5820 nM
CC(/C=C/c1ccc(N(C)C)cc1)=N\N=C1\NC(=O)CC(C(=O)Nc2ccccc2)S1 (stereo not given) | 3160 nM
Cc1ccc(C(NC(=O)NC(C)c2ccccc2)C(Cl)(Cl)Cl)cc1F (stereo not given) | 6410 nM
Clc1cccc(Nc2ncnc3c2cnn3-c2ccccc2)c1 | 4980 nM
CCc1ccc2[nH]c(O)c(N=Nc3nc(-c4ccccc4)cs3)c2c1 | 8800 nM
Cc1sc2cc3c(c(C(=O)c4ccccc4)[n+]2c1C)-c1cccc2cccc-3c12 | 6660 nM
O=[N+]([O-])c1ccc(NCc2ccc(Cl)cc2)c2ccncc12 | 9290 nM
Cc1ccc(-c2nn(-c3ccccc3)cc2/C=N/O)cc1 | 6280 nM
Cc1cc(=O)oc2cc(OCC(=O)N3CCN(C(=O)C4COc5ccccc5O4)CC3)ccc12 (stereo not given) | 3160 nM
CC(=O)C(=Nc1ccc(Cl)cc1Cl)NNc1cccc(Cl)c1 | 5070 nM
O=c1cc(N2CCCCC2)c(-c2ccccc2)nn1Cc1c(Cl)cccc1Cl | 4690 nM
Cc1cc([N+](=O)[O-])cc(/C=N/n2c(C)nc3ccccc3c2=O)c1O | 4070 nM
CC(=O)N(C1=C(Cl)C(=O)c2ccccc2C1=O)C1CCCCC1 | 9360 nM
CCOC(=O)c1sc(NC(=O)Nc2cccc(Cl)c2)cc1C | 2390 nM
C=C(C)COc1ccc(-c2n[nH]c(C)c2-c2ccc(Br)cc2)c(O)c1 | 2210 nM
COc1ccccc1OCC(=O)NNC(=S)NC(=O)c1ccco1 | 2390 nM
O=C(CC1CC2CCC1C2)Nc1nc(-c2ccccn2)cs1 (stereo not given) | 2400 nM
Oc1c(CN2CCN(c3ccc(F)cc3)CC2)cc(Cl)c2cccnc12 | 1010 nM
CC1(C)CC[C@]2(C(=O)O)CC[C@]3(C)C(=CCC4[C@@]5(C)CC[C@H](O)C(C)(C)C5CC[C@]43C)C2C1 (stereo not given in full) | 2690 nM
CC1=NN(/C(=N\c2nnc(C)s2)Nc2ccc(C(C)(C)C)cc2)[C@H](c2ccc(C)cc2)S1 | 7140 nM
O=C1C(=O)c2ccccc2-c2ccccc21 | 1260 nM
Cc1cccc(-c2oc3ccccc3c2C#CCCCCO)c1 | 5720 nM
Cc1ccc(CN2C(=O)c3ccccc3NC2c2cc(Br)ccc2O)cc1 (stereo not given) | 4310 nM

SMILES | EC50
O=C1/C(=C\c2cccc(O)c2O)SC(=S)N1Cc1ccccc1 | 2200 nM
CCCCn1c(/C=N/Nc2nc3ccccc3[nH]2)nc2ccccc21 | 1170 nM
CC(=O)N1CCc2cc(S(=O)(=O)N3CCc4ccccc43)ccc21 | > 15000 nM (inactive)
CCCCCCCCCCCCOC(=O)C[N+](C)(C)C | 3020 nM
CCC(NC(=O)Nc1nnc(C(F)(F)F)s1)(C(F)(F)F)C(F)(F)F | 1420 nM
CN(C)S(=O)(=O)c1ccc(C(=O)Nc2nnc(-c3ccc4c(c3)CCCC4)o2)cc1 | 144 nM
S=c1[nH]nc(-c2cc(-c3ccccc3)n[nH]2)n1/N=C/c1ccc(Br)s1 | 5220 nM
O=c1[nH]c2cc3c(cc2cc1CN(CCc1ccccc1)Cc1nnnn1CC1CCCO1)OCO3 (stereo not given) | > 15000 nM (inactive)
OC(COc1ccc2ccccc2c1Br)Cn1cnc(-c2ccccc2)c1 (stereo not given) | 5710 nM
CCn1cc(C(=O)O)c(=O)c2cc(F)c(N3CCN(C(=S)NC(=O)c4cc(OC)cc(OC)c4)CC3)cc21 | 2910 nM
COc1ccc(-c2n[nH]c(C)c2-c2ccc(Cl)cc2)c(O)c1 | 6520 nM
Nc1nc(NCCOCCO)nc(N2CCCCCC2)c1[N+](=O)[O-] | 5780 nM
O=C(CN1c2ccccc2Sc2ccccc21)NNC(=O)Nc1ccc(Cl)c(Cl)c1 | 2230 nM
CCOC(=O)c1[nH]c2ccc(F)cc2c1NC(=O)c1ccccc1C(=O)O | > 15000 nM (inactive)
O=Nc1c(-c2c(O)[nH]c3cc(Br)ccc23)[nH]c2ccccc12 | 2950 nM
CCN1CCN(C(=O)N[C@@H](C(=O)N[C@@H]2C(=O)N3[C@@H]2SC(C)(C)[C@@H]3C(=O)O)c2ccccc2)C(=O)C1=O | 285 nM
COc1ccccc1-c1n[nH]c2c1[C@H](C)CC[C@H]2C(C)C | 2810 nM
CCCCCCCn1c(NC(=O)CC)nc2ccccc21 | 342 nM
CN1CCN(C2=Cc3cc(Cl)ccc3Sc3cc(F)ccc32)CC1 | 5160 nM
COC(=O)c1ccc(NC(=O)c2nc(S(=O)(=O)Cc3cccc(C)c3)ncc2Cl)cc1 | 1040 nM
COc1cccc(C2CC(c3cccs3)=NN2C(=O)CSc2nc3c(cnn3-c3ccc(F)cc3)c(=O)[nH]2)c1OC (stereo not given) | 2030 nM
O=C(Nc1ccc(Br)cc1C(=O)O)c1ccc2c(c1)C(=O)N(Cc1ccccc1)C2=O | 1150 nM
CCOC(=O)c1ccc(-n2c(O)c(/C=N/NC(=O)C3COc4ccccc4O3)c3ccccc3c2=O)cc1 (stereo not given) | 1550 nM
CC(=O)OCC1=C(C(=O)O)N2C(=O)C(NC(=O)CCn3nc(C)c(Cl)c3C)C2SC1 (stereo not given) | 1020 nM
Cc1c(Cl)c(C(F)F)nn1CC(=O)NC1C(=O)N2C(C(=O)O)=C(CSc3nnnn3C)CSC12 (stereo not given) | < 60 nM
CCC(Oc1ccccc1)C(=O)Nc1ccccc1N1CCCCC1 (stereo not given) | 3300 nM
Cc1c(C(=O)NNC(=O)c2ccccc2O)oc2ccc(Br)cc12 | > 15000 nM (inactive)

SMILES | EC50
NS(=O)(=O)c1ccc(N/N=C2/CCCCC2C2CCCCC2)c([N+](=O)[O-])c1 (stereo not given) | 3110 nM
CC(C)c1ccc2c(c1)c(SC(C)(C)C)c(CC(C)(C)C(=O)O)n2Cc1ccc(Cl)cc1 | 875 nM
N#Cc1nc(-c2ccc(OCc3ccccc3Cl)cc2)oc1NCCCn1ccnc1 | 3270 nM
COc1ccc(C2CC(c3cccs3)=NN2C(=O)CSc2nc3c(cnn3-c3ccccc3)c(=O)[nH]2)cc1 (stereo not given) | 2110 nM
CN(C)/C=C(\C=N\OCc1ccc(Cl)cc1Cl)C(=O)Nc1ccc(Cl)c(Cl)c1 | 803 nM
O=C(Nc1nnc(-c2ccncc2)o1)c1ccc2ccccc2c1 | 5020 nM
CCCCC(=O)O[C@H]1CC[C@H]2[C@@H]3CCc4cc(O)ccc4[C@H]3CC[C@]12C | 3830 nM
COc1cc(Br)cc(/C=N/NC(=O)Cc2ccc(C(F)(F)F)cc2[N+](=O)[O-])c1O | 1100 nM
CCOc1ccc2nc(NC(=O)c3ccccn3)sc2c1 | 1790 nM
C[C@]12CCC(O)CC1CCC1C2CC[C@]2(C)C(c3cc(C(F)(F)F)n[nH]3)CCC12 (stereo not given in full) | 1900 nM
COc1ccccc1CN1CN(S(=O)(=O)c2ccccc2)c2nc3ccccc3nc21 | 5130 nM
COc1ccc(S(=O)(=O)NCC2CCCN(Cc3ccc(OC)cc3F)C2)cc1 (stereo not given) | > 15000 nM (inactive)
Cc1ccccc1Oc1nc(-c2ccccn2)nc2ccccc12 | 4190 nM
CC(=O)NC(c1ccc(Cl)cc1Cl)c1ccc2cccnc2c1O (stereo not given) | 4200 nM
CC(C)(C)c1cc[n+](C2=C([O-])c3ccccc3C(=O)/C2=N\S(=O)(=O)c2cccs2)cc1 | 2020 nM
COc1ccc(C(=O)NC(=S)NNC(=O)c2c(-c3ccccc3)noc2C)cc1OC | 506 nM
C/C(=N\Nc1ccc(Cl)c(Cl)c1)c1ccc(-n2ccnc2)cc1 | 1860 nM
CC(C)C(NC(=O)C(c1ccccc1)c1ccccc1)c1nc2ccccc2[nH]1 (stereo not given) | 2960 nM
COCCCNC(=S)NNC(=S)Nc1cccc(Cl)c1 | > 15000 nM (inactive)
Cc1nc2c(=O)n(C)c(=O)nc-2n(C)n1 | 2770 nM
Cc1cccc(C)c1-n1cccc1/C=C1\SC(=S)N(c2cccc(C(=O)O)c2)C1=O | 2260 nM
CC12CCC(C/C1=N\N=C1\NC(=O)/C(=C\c3ccc(Cl)cc3)S1)C2(C)C (stereo not given) | 1130 nM
O=C1C2C(c3ccccc3)=NN(c3ccccc3)C2C(=O)N1c1ccccc1 (stereo not given) | 704 nM
S=c1[nH]nc(-c2cc(-c3ccccc3)n[nH]2)n1/N=C/c1ccc(Cl)cc1 | 8670 nM
O=C(NC(=S)NNC(=O)c1ccccc1O)c1ccccc1 | 2360 nM
CCCCCCCCOC(=O)c1c(CSC(=N)N)n(C)c2cc(Br)c(OC(C)=O)cc12 | 2830 nM
O=C(CSc1nnc(CNC(=O)c2ccc(F)cc2)o1)NCc1ccccc1Cl | > 15000 nM (inactive)

SMILES | EC50
O=C1N/C(=N\c2ccccn2)SC1Cc1ccc(Cl)cc1 (stereo not given) | > 15000 nM (inactive)
CC(=O)Nc1ccc(C2C(=O)c3ccccc3C2=O)cc1 | > 15000 nM (inactive)
C/C(=N\NC(=O)COc1ccc(C)cc1C(C)C)c1cc2ccccc2o1 | 11000 nM
CCOc1ccc(/C=N/NC(=S)NC2CC3CC2C2C=CCC32)cc1 (stereo not given) | 5480 nM
Cc1ccc(-n2c(SCC(=O)Nc3ccc4c5c(cccc35)CC4)nc(O)cc2=O)cc1 | 11900 nM
CNC1=C(N(C(C)=O)c2ccc(Br)cc2)C(=O)c2ccccc2C1=O | 6360 nM
Cc1nc2ccccc2c(=O)n1/N=C/c1ccc2ccccc2c1O | > 15000 nM (inactive)
COc1cccc(C(=O)Nc2nnc(-c3cccs3)o2)c1 | 3340 nM
COc1ccc(C(=O)NC(=S)NNC(=O)COc2ccccc2)cc1 | 666 nM
Cc1cc(COC(=O)C2N3C(=O)[C@@H](NC(=O)COc4ccccc4)[C@H]3SC2(C)C)on1 (stereo not given in full) | 119 nM
CS(=O)(=O)c1ccc2nc(NC(=O)c3ccc(NS(=O)(=O)c4ccc(F)c(F)c4)cc3)sc2c1 | 622 nM
Cc1cccc(Cc2cnc(N3C(=N)SC(C)C3=O)s2)c1 (stereo not given) | 131 nM
O=C(NNc1nc2ccc(Cl)cc2s1)c1cc(-c2cccs2)nc2ccccc12 | 334 nM
O=C(O)c1ccc(N=Nc2c(O)[nH]c3ccc(Br)cc23)cc1 | 2030 nM
CCc1ccc(NC(=O)c2ccc(F)c(S(=O)(=O)NCC3COc4ccccc4O3)c2)cc1 (stereo not given) | 5340 nM
COC(=O)c1ccc(/C=C/c2ccc3cccc(OC(C)=O)c3n2)cc1 | 1180 nM
CC(C)(C)c1nnc(N/N=C/c2cc(Br)ccc2O)n(N)c1=O | 2120 nM
Cc1ccccc1OCC(=O)Nc1ccccc1N1CCC(C)CC1 | 7480 nM
O=C(CSC(=S)N1CCOCC1)c1cc(Br)cc(Br)c1O | > 15000 nM (inactive)
C[C@H]1[C@H](C)CC[C@]2(C)CC[C@]3(C)C(=CC[C@@H]4[C@@]5(C)CC[C@@H](O)[C@](C)(C(=O)O)[C@@H]5CC[C@]43C)[C@H]12 | 997 nM
O=C1c2ccccc2C2=Nc3ccccc3SC(c3ccc(Cl)cc3)C12 (stereo not given) | 3900 nM
Cc1cc(C(C)(C)C)cc(C)c1COC(=O)c1cccnc1 | 3250 nM
CCCn1c(NC(=O)C23CC4CC(CC(O)(C4)C2)C3)nc2ccccc21 | 3090 nM
N#Cc1nc(-c2ccccc2Cl)oc1N1CCN(C(=O)c2ccco2)CC1 | > 15000 nM (inactive)

— PubChem BioAssay AID1902 (Broad Institute, 2009)
